The values below come from US10928397B2, “Methods involving MenaINV in screening for inhibitors of cancer invasion and metastasis” (MASSACHUSETTS INSTITUTE OF TECHNOLOGY, priority 2012, dated 2021).

Entries after “also recorded” stand apart in the source; their conditions may differ.

Test [1] concerns MET. The test can be described thus: HGF-stimulated protrusion assay with MET inhibitor. The format is cell-based. Conditions: +5 ng/ml HGF. The method, then: FIG. 11: Cell protrusion assays were performed in which starved carcinoma cells expressing GFP, GFP-Mena or GFP-Mena^INV were stimulated with different concentrations of hepatocyte growth factor (HGF) (analogously as done with EGF stimulation of EGFR) followed by a measurement of cell protrusion several minutes later. The HGF concentrations (x-axis) are nM and the Y-axis is increase in cell size (a reflection of protrusion) compared to unstimulated cells.

The subject of test [2] is MET. The test can be described thus: MET kinase activity in cells with MET inhibitor. In kind it is cell-based.
Test [3] deals with MDA-MB231 cells. As to the kind of experiment: EGF-stimulated lamellipodial (membrane) protrusion in MDA-MB231 cells. In kind it is cell-based. Conditions: for lamellipodial protrusion 8 min post-stimulation: 0.5 nM EGF. The method, then:
(§1) FIG. 2A-2G. Inhibition of PTP1b phenocopies expression of Mena^INV. (A) MDA-MB231 cells were serum starved for 4 h with addition of 10 μM PTP1b inhibitor (EMD Calbiochem) for the time indicated. Cells were then stimulated with 0.5 nM EGF and lamellipodial protrusion was measured 8 min post-stimulation. […] (G) Inhibition of PTP1b in vivo shifts the sensitivity of GFP-Control MTLn3 xenografted cells to 5 nM (a 5× increase in sensitivity). *p<0.05 and **p<0.01 by ANOVA and Tukey post-test.
FIG. 8A-8D: The activity of SHIP2 is not required for early stages of Mena^INV-induced lamellipodial protrusion. MDA-MB231 (A,B) and MTLn3 (C,D) cells were incubated for 4 h with 10 μM AS1949490 in serum-free medium. Cells were stimulated with 0.25 nM (A,B) or 0.5 nM (C,D) EGF and membrane protrusion was recorded 8 min. […]
In contrast, inhibition of PTP1b increased lamellipodial protrusion in MDA-MB231-GFP control cells in a time dependent manner in response to 0.5 nM EGF.

Test [4] concerns MTLn3 cells. The test can be described thus: EGF-stimulated lamellipodial (membrane) protrusion in MTLn3 cells. The format is cell-based. How it is done: as §1
FIG. 8A-8D: The activity of SHIP2 is not required for early stages of Mena^INV-induced lamellipodial protrusion. MDA-MB231 (A,B) and MTLn3 (C,D) cells were incubated for 4 h with 10 μM AS1949490 in serum-free medium. Cells were stimulated with 0.25 nM (A,B) or 0.5 nM (C,D) EGF and membrane protrusion was recorded 8 min.
What could account for the phenotypes associated with inclusion of the INV exon of Mena, that include: increased activation of EGFR and downstream EGFR-mediated, motility-specific signaling pathways, increased cell invasion, and decreased efficacy of tyrosine kinase inhibition? One route to aberrant signal amplification is dysregulation of control nodes within the protein network, such as phosphatases, that could lead to prolonged or amplified phosphorylation states. Identification of potential Mena and Mena^INV interacting partners that might affect phosphatase activity can shed light on this. Attempts were made at identification of Mena isoforms-specific interacting partners via mass spectrometric analysis. Several unsuccessful attempts to purify Mena interacting partners through a co-immunprecipitation and the mass spectrometric approach resulted. A bioinformatics screening approach was then used. A list of 38 human phosphatases was queried for potential Ena/VASP interaction motifs, with the hypothesis that an interaction between Mena^INV and a phosphatase important for attenuating growth factor responses could lead to increased signaling upon growth factor stimulation. […]

For test [5], the system named is EGFR Y1173 phosphorylation in MDA-MB231 cells. The test can be described thus: EGFR Y1173 phosphorylation on PTP1b inhibition, semi-quantitative Western blotting. Conditions: 0.25 nM EGF, 10 μM, 30 min preincubation. In kind it is cell-based. The method, then:
(§2) FIG. 9A-9C: PTP1b inhibition increases EGFR pathway activation. MDA-MB231 cells expressing GFP-control or GFPMena^INV were serum starved for 4 h and stimulated with 0.25 nM EGF in the presence or absence of 10 μM PTP1b (30 min preincubation). Phosphorylation of EGFR on Y1173 was measured using semi-quantitative Western blotting (A, B) of quadruplicate lysates. […] MTLn3 cells were transiently transfected with a mCherry-tagged PHdomain biosensor targeting PI(4,5)P2, starved in L15 media, pre-incubated with 10 μM PTP1bi and then stimulated with 0.5 nM EGF.
Background: Immunoblotting shows a protein as a band on a membrane.

Test [6] concerns MDA-MB231 cells. The test can be described thus: In vitro invasion into collagen I gels. Conditions: 0.25 or 0.5 nM EGF. In kind it is cell-based.
Test [7] relates to xenograft tumors of MTLn3 cells. As to the kind of experiment: In vivo invasion assay (needle collection from xenograft tumors). Further details: species or system mouse. How it is done:
An in vivo invasion assay was employed to determine the effect of decreased PTP1b activity on tumor cell chemotaxis. To mimic the in vitro invasion experiments, 50 μM PTP1b inhibitor was added to needles with 10% matrigel and varying concentrations of EGF, the needles inserted into xenograft tumors of MTLn3 cells expressing either GFP or GFP-Mena^INV and cells allowed to crawl into the needle during a 4 h period. Similar to the results obtained in vitro, addition of PTP1b inhibitor to needles used to collect cells had no effect on the number of cells ectopically expressing Mena^INV collected (FIG. 2G). However, PTP1b inhibition increased the sensitivity of control cells 5-fold, decreasing the concentration of EGF required for chemotaxis into the needles from 25 nM to 5 nM. In this assay the discrepancy between expression of Mena^INV and inhibition of PTP1b may be due to the time lag required for inhibitor efficacy.
However, viability of the mouse under anesthesia precludes collection of cells for longer periods than 4 h, therefore this effect is difficult to quantify.

For test [8], the system named is MTLn3 cells. As to the kind of experiment: PI(4,5)P2 hydrolysis, mCherry-tagged PH-domain biosensor (PLCγ activity). The format is cell-based. Conditions: GFP-control MTLn3, 10 μM pre-incubation, 0.5 nM EGF, 3 min post-EGF, versus DMSO. How it is done:
as §2

The subject of a further test is mammary carcinoma cells. As to the kind of experiment: In vivo invasion of mammary carcinoma cells under Erlotinib.
Another test has as its system cells expressing MenaINV. As to the kind of experiment: Membrane protrusion after 1 nM EGF with increasing doses of Erlotinib. The format is cell-based. How it is done:
FIG. 6A-6D: Cells expressing MenaINV are resistant to EGFR targeted kinase inhibitors. [A] […] Data was combined to generate novel hypothesis regarding clinically-relevant treatment regimes for invasive breast cancer. […]. Membrane protrusion was quantified 8 min post-EGF/drug addition. *p<0.05, **p<0.01, ***p<0.001. […]. Cells were serum starved and then stimulated with EGF and drug for 3 min. Cells were lysed and the level of EGFR-pY1173 was determined by semi-quantitative Western Blot.
. To test this hypothesis, serum-starved cells were treated with 1.0 nM EGF and increasing doses of DMSO (carrier control) or Erlotinib and measured EGFR phosphorylation at 3 min post-stimulation (FIG. 6B). […]. […] Further, electron microscopy was performed using ultra-small gold particles to examine receptor distribution along the cell membrane to determine if increased clustering of the receptor might affect drug binding or signal propagation. However, no significant difference was found in receptor clustering in the analysis (FIG. 7).

As for `Cc1[nH]c(/C=C2\C(=O)Nc3ccc(S(=O)(=O)N(C)c4cccc(Cl)c4)cc32)c(C)c1C(=O)N1CCN(C)CC1` [SU11274], the “response of Mena^INV expressing cells in protrusion assay” value in the test with MET [1] is recorded as “resistant”. Moreover, in the test with MET [2], the “response of Mena^INV expressing cells, MET kinase activity” value is reported as “resistant”.

With `C[C@H](NC(=O)c1sccc1OCc1ccc(Cl)cc1)c1ccccc1` [AS1949490], the “membrane protrusion at 8 min post-EGF stimulation” value is on record as “reduced the protrusion response; also recorded: decreased membrane protrusion to GFPcontrol levels” with MDA-MB231 cells [3] (MDA-MB231-GFP-Mena^INV, 10 μM for 4 h, 0.25 nM EGF) and “reduced the protrusion response; also recorded: decreased membrane protrusion to GFPcontrol levels” with MTLn3 cells [4] (MTLn3-GFP-Mena^INV, 10 μM for 4 h, 0.5 nM EGF). The “initial protrusion response (kinetics)” value in the test with MDA-MB231 cells [3] (MDA-MB231-GFP-Mena^INV, 10 μM, 0.25 nM EGF, up to 3 min post-stimulation) is reported as “still demonstrated the fast initial protrusion response”; in the test on MTLn3 cells [4] (MTLn3-GFP-Mena^INV, 10 μM, 0.5 nM EGF, up to 3 min post-stimulation), “still demonstrated the fast initial protrusion response”.

Take `CCc1oc2cc(S(=O)(=O)Nc3ccc(S(=O)(=O)Nc4nccs4)cc3)ccc2c1C(=O)c1cc(Br)c(O)c(Br)c1` [PTP1b inhibitor]: the “EGFR Y1173 phosphorylation” value is recorded as “increases EGFR phosphorylation on Y1173; also recorded: increased EGFR Y1173 phosphorylation” in test [5] (GFP control cells); “increased EGFR Y1173 phosphorylation” in test [5] (GFP control cells, listed as PTP1bi); “no additional affect” in [5] (cells expressing Mena^INV). For the same compound, the “lamellipodial protrusion 8 min post-stimulation” value in the test on MDA-MB231 cells [3] (GFP-control cells, 10 μM, 30 min pre-incubation) was “complete phenocopy of Mena^INV-dependent responses; also recorded: significant increase in membrane protrusion”; with MDA-MB231 cells [3] (cells expressing Mena^INV, 10 μM, 30 min pre-incubation) it was “had no effect”. Further, the kinetics of protrusion result with MDA-MB231 cells [3] (MDA-MB231-GFP control cells, 30 min pre-incubation) was “increased the kinetics of protrusion”; in the test on MDA-MB231 cells [3] (MDA-MB231-GFP-Mena^INV cells), “without affecting the dynamics”. For the same compound, the membrane protrusion result in the test on MDA-MB231 cells [3] (MDA-MB231-GFP-Mena and GFP control cells, 0.25 nM EGF) was “increased membrane protrusion; also recorded: protrusion was increased”; in the test on MDA-MB231 cells [3] (MDA-MB231-GFP-Mena^INV cells, 0.25 nM EGF) it was “no further increase was measured”; in the test on MDA-MB231 cells [3] (cells expressing Mena^INV, 0.125 nM EGF (data not shown)) it was “does not increase membrane protrusion”. The “invasion into collagen I gels” value is reported as “increased” with MDA-MB231 cells [6] (MDA-MB231-GFP and -GFP-Mena); “no significant effect” in the test on MDA-MB231 cells [6] (cells expressing Mena^INV). Also, the “increase in sensitivity of control cells to EGF in vivo” value in test [7] (GFP-control MTLn3 xenograft, 50 μM inhibitor in needles, 4 h) stood at 5 fold. Besides, the “concentration of EGF required for chemotaxis into the needles with inhibitor” value in test [7] (GFP-control MTLn3 xenograft, 50 μM inhibitor, 25 nM without inhibitor) is listed as 5 nM. Besides, in test [7] (MTLn3 cells ectopically expressing Mena^INV, 50 μM inhibitor), the “number of cells collected into needles” value is “had no effect”. Also, in the test on MTLn3 cells [4] (unmodified MTLn3 cells, EGF (0.5 nM, 5 nM elsewhere in the source)), the “membrane protrusion (magnitude and kinetics)” value is “increased the magnitude and kinetics of membrane protrusion; also recorded: significantly enhanced”. The entries for the “PI(4,5)P2 hydrolysis (PLCγ activity)” value with MTLn3 cells [8] and in the test with MTLn3 cells [8] (listed as PTP1bi) were “increased PI(4,5)P2 hydrolysis” and “PLCγ activity is greater”, respectively.

In the case of `C#Cc1cccc(Nc2ncnc3cc(OCCOC)c(OCCOC)cc23)c1` [Erlotinib], the in vivo invasion entry is listed as “abrogates in vivo invasion” with mammary carcinoma cells (GFP-expressing mammary carcinoma cells) and “does not fully block invasion” in the test with mammary carcinoma cells (cells that express Mena^INV). The “drug required to decrease lamellipodial protrusion, Mena^INV cells compared to control GFP or Mena cells” value with cells expressing MenaINV (1 nM EGF, 8 min post-EGF/drug addition) is given as “ten-fold more Erlotinib was required; also recorded: Significantly higher doses of Erlotinib (Tarceva) are required”. For the same compound, the “efficacy after normalizing protrusion to the no-drug response of each cell line” value in the test on cells expressing MenaINV (across cell lines (FIG. 6D)) is recorded as “roughly equivalent; also recorded: a common response across cell lines”.
